Assay results taken from PMC9699089 (Pathogens, 2022).

Legend:
[1] = tested on: human telomeric sequence F21T G-quadruplex; assay: FRET melting assay, F21T; format: binding; conditions: compound 2 μM, oligonucleotide 0.2 μM, K+ conditions
Protocol: (§1) These were performed with dual-labeled oligonucleotides mimicking the Plasmodium telomeric sequences FPf1T [FAM-5′(GGGTTTA)3-GGG3′-TAMRA] and FPf8T [FAM-5′(GGGTTCA)3GGG3′-TAMRA], the Trypanosoma 9 and 11 chromosomic sequence FTrypBT (also named FEBR1T) [FAM-5′[…]3′-TAMRA], the human telomeric sequence F21T [FAM-(GGGTTA)3-GGG3′-TAMRA] and the human duplex sequence FdxT [FAM5′-[…]-hexaethyleneglycol-[…]3′-TAMRA] [27, 31, 47]. The oligonucleotides were pre-folded in 10 mM lithium cacodylate buffer (pH 7.2), with 10 mM KCl and 90 mM LiCl (K^+ condition). The FAM emissions were recorded at 516 nm using a 492-nm excitation wavelength in the absence and presence of a single compound as a function of temperature (25 to 95 °C) in 96-well microplates using a Stratagene MX3000P real-time PCR device at a rate of 1 °C∙min-1. Data were normalized between 0 and 1, and the required temperature for half-denaturation of oligonucleotides corresponding to the emission value of 0.5 was taken as the Tm. Each experiment was performed in duplicate with 0.2 µM of labeled oligonucleotide and 2 µM of compound under K^+ condition. For each compound, three independent experiments were carried out.

[2] = tested on: T. brucei brucei AnTat 1.9; assay: In vitro antitrypanosomal activity, Alamar Blue assay; format: cell-based, Trypanosoma brucei brucei; conditions: Trypanosoma brucei, slender bloodstream trypomastigotes, AnTat 1.9 strain; mean +/- SD of three independent experiments; read-out: Trypanosoma brucei brucei IC50 Values Trypanos Antat 1.9
Protocol: The effects of the tested compounds on the growth of T. brucei brucei were assessed using an Alamar Blue® assay described by Räz et al. T. brucei brucei AnTat 1.9 ([…], Belgium) was cultured in MEM with Earle's salts, supplemented according to the protocol of Baltz et al. […] All doses were tested in duplicate. Appropriate controls treated with solvents 0.9% NaCl or DMSO or with suramin, pentamidine, eflornithine, and fexinidazole (reference drugs purchased from Sigma Aldrich and Fluorochem, UK) were added to each set of experiments. After 69 h incubation period at 37 °C, 10 μL of the viability marker Alamar Blue (Fisher) was added to each well, and the plates were incubated for 5 h. The plates were read in a PerkinElmer ENSPIRE (Germany) microplate reader using an excitation wavelength of 530 nm and an emission wavelength of 590 nm.

[3] = tested on: Plasmodium falciparum CQ-sensitive strain 3D7; assay: In vitro antiplasmodial activity, SYBR Green I fluorescence-based method, strain 3D7; format: cell-based; conditions: CQ-sensitive strain 3D7, 48 h incubation, mean of three independent experiments, read-out: P. falciparum Strains IC50 Values 3D7
Protocol: (§2) The in vitro antiplasmodial activities were tested over concentrations ranging from 39 nM to 40 µM against culture-adapted Plasmodium falciparum reference strains 3D7 and W2. […] These two strains are obtained from the collection of the National Museum of Natural History (Paris, France). The parasites were cultivated in RPMI medium (Sigma Aldrich, Lyon, France) supplemented with 0.5% Albumax I (Life Technologies Corporation, Paisley, UK), hypoxanthine (Sigma Aldrich), and gentamicin (Sigma Aldrich) with human erythrocytes and were incubated at 37 °C in a candle jar, as described previously. The P. falciparum drug susceptibility test was carried out in 96-well flat bottom sterile plates in a final volume of 250 µL. After 48 h incubation period with the drugs, quantities of DNA in treated and control cultures of parasites in human erythrocytes were quantified using the SYBR Green I (Sigma Aldrich) fluorescence-based method. Briefly, after incubation, plates were frozen at -20 °C until use. Plates were then thawed for 2 h at room temperature, and 100 µL of each homogenized culture was transferred to a well of a 96-well flat bottom sterile black plate (Nunc, Inc.) that contained 100 µL of the SYBR Green I lysis buffer (2xSYBR Green, 20 mM Tris base pH 7.5, 5 mM EDTA, 0.008% w/v saponin, 0.08% w/v Triton X-100). […] Plates were incubated for 1 h at room temperature and then read on a fluorescence plate reader (Tecan, Austria) using excitation and emission wavelengths of 485 and 535 nm, respectively.

[4] = tested on: L. donovani (MHOM/IN/00/DEVI) promastigotes; assay: In vitro antileishmanial activity on promastigotes, MTT assay; format: cell-based; conditions: Leishmania donovani, 72 h incubation, mean +/- SD of three independent experiments
Protocol: L. donovani (MHOM/IN/00/DEVI) used in this study was provided by the CNR Leishmania (Montpellier, France). The effects of the tested compounds on the growth of L. donovani (MHOM/IN/00/DEVI) promastigotes were assessed by MTT assay. Briefly, promastigotes in log-phase in Schneider’s medium supplemented with 20% fetal calf serum (FCS), 2 mM L-glutamine and antibiotics (100 U/mL penicillin and 100 µg/mL streptomycin), were incubated at an average density of 10^6 parasites/mL in sterile 96-well plates with various concentrations of compounds previously dissolved in DMSO (final concentration less than 0.5% v/v), in duplicate. […] Duplicate assays were performed for each sample. After the 72 h incubation period at 27 °C, parasite metabolic activity was determined. Each well was microscopically examined for precipitate formation. To each well was added 10 µL of 10 mg/mL MTT [3-(4,5-dimethylthiazol-2-yl)-2,5-diphenyltetrazolium bromide)] solution followed by 4 h incubation time. The enzyme reaction was stopped by addition of 100 µL of 50% isopropanol/10% sodium dodecyl sulfate. Plates were vigorously shaken (300 rpm) for 10 min, and the absorbance was measured at 570 nm with 630 nm as reference wavelength in a BIOTEK ELx808 Absorbance Microplate Reader (Agilent Technologies, Les Ulis, France). […] IC50 of the parasite’s growth (half maximal inhibitory concentration or IC50 values) were then calculated from the obtained experimental results using a previously described regression program. IC50 values were calculated from three independent experiments.

[5] = tested on: Plasmodium telomeric sequence FPf1T G-quadruplex; assay: FRET melting assay, FPf1T; format: binding, Plasmodium falciparum; conditions: compound 2 μM, oligonucleotide 0.2 μM, K+ conditions
Protocol: as §1

[6] = tested on: Trypanosoma 9 and 11 chromosomic sequence FTrypBT (FEBR1T) G-quadruplex; assay: FRET melting assay, FtrypBT; format: binding, Trypanosoma brucei brucei; conditions: compound 2 μM, oligonucleotide 0.2 μM, K+ conditions
Protocol: as §1

[7] = tested on: Plasmodium falciparum CQ-resistant strain W2; assay: In vitro antiplasmodial activity, SYBR Green I fluorescence-based method, strain W2; format: cell-based; conditions: CQ-resistant strain W2, 48 h incubation, mean of three independent experiments, read-out: P. falciparum Strains IC50 Values W2
Protocol: as §2

[8] = Cytotoxicity evaluation, MTT assay; format: cell-based, human; conditions: human
Protocol: These cells are a commonly used human hepatocarcinoma-derived cell line that has characteristics similar to those of primary hepatocytes. These cells express many hepatocyte-specific metabolic enzymes, thus enabling the cytotoxicity of tested product metabolites to be evaluated. […] Duplicate assays were performed for each sample. Each well was microscopically examined for precipitate formation before the medium was aspirated from the wells. After aspiration, 100 µL of MTT solution (0.5 mg/mL in medium without FCS) were then added to each well. […] The MTT solution was removed, and DMSO (100 µL) was added to dissolve the resulting blue formazan crystals. Plates were shaken vigorously (300 rpm) for 5 min. The absorbance was measured at 570 nm with 630 nm as reference wavelength in a BIO-TEK ELx808 Absorbance Microplate Reader. DMSO was used as blank and doxorubicin (Sigma Aldrich) as positive control. Cell viability was calculated as percentage of control (cells incubated without compound). The CC50 was determined from the dose-response curve using TableCurve 2D V5.0 software (Systat Software, Palo Alto, CA, USA).

[9] = tested on: human duplex sequence FdxT; assay: FRET melting assay, duplex control FdxT; format: binding; conditions: compound 2 μM, oligonucleotide 0.2 μM, K+ conditions
Protocol: as §1

[10] = tested on: Plasmodium telomeric sequence FPf8T G-quadruplex; assay: FRET melting assay, FPf8T; format: binding, Plasmodium falciparum; conditions: compound 2 μM, oligonucleotide 0.2 μM, K+ conditions
Protocol: as §1

SMILES | ΔTm F21T [1] [°C] | IC50 [2] [µM] | IC50 [3] [µM] | IC50 [4] [µM] | ΔTm FPf1T [5] [°C] | ΔTm FtrypBT [6] [°C] | IC50 [7] [µM] | CC50 at 72 h [8] [µM] | ΔTm FdxT [9] [°C] | ΔTm FPf8T [10] [°C]
CN(C)CCCNCc1cc(-c2ccccc2)c2ccc3c(-c4ccccc4)cc(CNCCCN(C)C)nc3c2n1 [Compound 1b, 2,9-Bis[(3-dimethylaminopropyl)aminomethyl]-4,7-diphenyl-1,10-phenanthroline] | 12.8 | 0.57 ± 0.07 | 21.2 ± 7.72 | > 12.5 | 7.4 | 8.7 | 6.13 ± 1.63 | 5.96 ± 0.2 | −0.3 | 7.9
CN1CCN(CCNCc2cc(-c3ccccc3)c3ccc4c(-c5ccccc5)cc(CNCCN5CCN(C)CC5)nc4c3n2)CC1 [Compound 1e] | 9.6 | 0.45 ± 0.03 | 2.16 ± 0.32 | > 12.5 | 9.4 | 8.0 | 0.92 ± 0.18 | 10.5 ± 1.27 | −1.6 | 10.5
CN1CCN(CCCNCc2cc(-c3ccccc3)c3ccc4c(-c5ccccc5)cc(CNCCCN5CCN(C)CC5)nc4c3n2)CC1 [Compound 1f] | 10.8 | 0.97 ± 0.11 | 21.5 ± 4.1 | > 12.5 | 8.8 | 9.1 | 11.3 ± 2.93 | 8.62 ± 0.5 | −0.5 | 10.9
CN1CCN(CCCCNCc2cc(-c3ccccc3)c3ccc4c(-c5ccccc5)cc(CNCCCCN5CCN(C)CC5)nc4c3n2)CC1 [Compound 1g] | 11.2 | 0.96 ± 0.13 | 8.19 ± 3.53 | > 12.5 | 13.4 | 12.2 | 2.48 ± 0.49 | 16.8 ± 0.6 | −0.5 | 14.5
c1ccc(-c2cc(CNCCN3CCOCC3)nc3c2ccc2c(-c4ccccc4)cc(CNCCN4CCOCC4)nc23)cc1 [Compound 1h] | 2.0 | 0.22 ± 0.06 | 0.67 ± 0.21 | 4.5 ± 2.2 | 1.8 | 2.2 | 0.17 ± 0.05 | 5.89 ± 0.53 | −0.9 | 1.9
